Experimental data from article PMC11466185, “Mechanisms and efficacy of small molecule latency-promoting agents to inhibit HIV reactivation ex vivo” (JCI Insight, 2024).

Assays:
[1] = system: PBMCs; assay: Total number of live cells (proliferation) by trypan blue staining at day 6; assay type: cell-based, human; settings: for Total live cell numbers (proliferation) compared with activated DMSO (in words) / Total number of live cells (Fig 6A): day 6; for Total live cell numbers (proliferation) compared with activated DMSO (in words): Figure 6A; for Fig 6B: total live cells relative to DMSO+CD3/28: DMSO+CD3/28 = 100
Experimental: Some of our candidate LPAs can block the effects of T cell activation, which could affect T cell proliferation. Therefore, we evaluated the extent to which variations in the level of infected cells may contribute to reductions in different HIV RNA transcripts. We measured the total number of viable cells (as a measure of proliferation) and the conserved U3-U5 LTR HIV DNA region (as a measure of total infection frequency) at day 6.
(A) After 6 days, the total number of live cells was measured by trypan blue staining and then normalized to the levels of the activated DMSO (% of activated DMSO). All conditions were tested in the presence of CD3^+/CD28^+ T cell–activating beads, except for the unactivated DMSO condition. Bars indicate medians, and different colors indicate individual study participants. Comparisons were performed using Wilcoxon’s signed-rank test. (B) Total cellular DNA was extracted, and the levels of U3-U5 HIV DNA were measured to quantify infection frequency at 6 days. HIV DNA levels were normalized to copies per 10^6 cells using the input of cellular DNA (assuming 1 μg of total DNA corresponds to 160,000 cells) and then normalized to the activated DMSO control (% of activated DMSO). Bars indicate medians, and different colors indicate individual study participants.

[2] = system: HIV transcripts (TAR, LLTR, Pol, PolyA, TatRev); assay: Baseline HIV transcription without activation, PBMCs from ART-suppressed PWH, 24 hours; assay type: cell-based; settings: no activation; for LLTR HIV transcripts (DMSO = 100) / Pol HIV transcripts (DMSO = 100) / PolyA HIV transcripts (DMSO = 100) / Tat-Rev HIV transcripts (DMSO = 100) / PolyA/LLTR ratio (DMSO = 1) / TatRev/PolyA ratio (DMSO = 1) / TAR HIV transcripts (DMSO = 100) / LLTR/TAR ratio (DMSO = 1): ruxolitinib 4μM, dinaciclib 8nM, AZD4573 8nM, KRIBB11 2.5μM; for LLTR HIV transcripts (DMSO = 100) / Pol HIV transcripts (DMSO = 100) / PolyA HIV transcripts (DMSO = 100) / Tat-Rev HIV transcripts (DMSO = 100) / TAR HIV transcripts (DMSO = 100): pladienolide B 10nM; for PolyA/LLTR ratio (DMSO = 1) / TatRev/PolyA ratio (DMSO = 1) / LLTR/TAR ratio (DMSO = 1): pladienolide B
Experimental: For a selection of the compounds, we evaluated the ability to reduce baseline HIV transcription without activation. PBMCs were cultured in the presence of individual drugs in DMSO or DMSO alone as a control and harvested after 24 hours. For each drug, we tested PBMCs from at least 3 PWH, as indicated in Supplemental Figure 5B. […] Likewise, pladienolide B appeared to reduce the level of multiply spliced transcripts (33%, Supplemental Figure 5, A and B).
PBMCs were isolated from fresh venous blood from 16 ART-suppressed HIV-infected study participants using Ficoll density gradient centrifugation. The cells were seeded at 6 × 10^6 cells/well and cultured with antiretrovirals (nevirapine and indinavir) to prevent new infection. On the next day, PBMCs were activated with anti-CD3/CD28–coated beads (Invitrogen) in the presence of 20 U/mL IL-2 and individual drugs in DMSO or DMSO alone as a control. Since we were limited in the PBMC yield per study participant, different study participants were used for different experiments (such as the initial screen, dose response, different time points, and studies in activated vs. unstimulated cells). In addition, the yields of PBMCs were sometimes insufficient to test all drugs for a given question or experiment.
Total cellular DNA and RNA were extracted in parallel using Trireagent (Molecular Research Center) according to the manufacturer’s instructions, except for study participants 2147 and 2461 (Figure 4), for whom DNA and RNA were extracted using the QIAGEN AllPrep DNA/RNA/miRNA Universal Kit with on-column DNase I treatment of the RNA and the manufacturer’s modification to enhance recovery of short transcripts. RNA and DNA concentrations were measured using UV spectrophotometry (NanoDrop One, Thermo Fisher Scientific). Total initiated HIV (TAR) transcripts were quantified by a 3-step polyadenylation RT-ddPCR as described previously ([8], [84]). HIV 5′ elongated (LLTR), midtranscribed (Pol), completed (PolyA), and multiply spliced (TatRev) transcripts were quantified by a 2-step RT-ddPCR as previously described ([8]). The levels of each HIV transcript were normalized to 1 μg of total cellular RNA and expressed as a percentage of the (activated) DMSO control. To quantify virion-associated RNA in supernatant, RNA was extracted from 400 μL supernatant using Trireagent-LS (Molecular Research Center) according to the manufacturer’s instructions. Levels of U3-polyadenylated HIV RNA were measured in the supernatant by RT-ddPCR, normalized to copies/mL, and expressed as a percentage of the activated DMSO. For measuring the HIV infection frequency at day 6, the HIV DNA U3-U5 LTR region was quantified by using ddPCR as described previously ([8]). HIV DNA copies were normalized to cell numbers according to the mass of DNA input per well (calculated from the DNA concentration and input volume) ([85]).
Figure S5. CDK-inhibitors appear to decrease baseline HIV splicing even in the absence of T cell activation. Each drug was tested in PBMCs from at least three ART-suppressed study participants and PBMCs were aliquoted into wells at 6x10^6 cells/well. The cells were cultured with antiretrovirals but without activation in the presence of individual drugs in (1 picture or pasted object on this page, not shown here)
DMSO or DMSO alone as control. After 24h, total RNA was extracted and the progression through different stages of HIV transcription was quantified by measuring the levels of initiated (TAR), 5’ elongated (LLTR), mid-transcribed/unspliced (Pol), completed (PolyA) and multiply spliced (TatRev) HIV transcripts. A-B) The levels of all HIV transcripts were quantified, normalized to 1 µg of total cellular RNA, and expressed as a percent of the DMSO control (% of DMSO). A) Medians are shown, as well as the values of the individual study participants in different colors. B) The medians from panel A) are presented. The effect of each drug on the different transcripts was studied in three to six study participants, as […]

pladienolide B
Total live cell numbers (proliferation) compared with activated DMSO (in words) [1]: significantly lower | Fig 6B: total live cells relative to DMSO+CD3/28 ([1]; participant 2027): 130.18 | Fig 6B: total live cells relative to DMSO+CD3/28 ([1]; participant 2147a): 87.14 | Fig 6B: total live cells relative to DMSO+CD3/28 ([1]; participant 2147b): 432.65 | Fig 6B: total live cells relative to DMSO+CD3/28 ([1]; participant 2161): 52.54 | Fig 6B: total live cells relative to DMSO+CD3/28 ([1]; participant 2461): 69.04 | Fig 6B: total live cells relative to DMSO+CD3/28 ([1]; participant 2747): 68.1 | Total number of live cells (Fig 6A) ([1]; study participant 150a): 26.64 % of activated DMSO | Total number of live cells (Fig 6A) ([1]; study participant 156): 40.97 % of activated DMSO | Total number of live cells (Fig 6A) ([1]; study participant 163): 70.82 % of activated DMSO | Total number of live cells (Fig 6A) ([1]; study participant 2027): 28.6 % of activated DMSO | Total number of live cells (Fig 6A) ([1]; study participant 2147a): 113.84 % of activated DMSO | Total number of live cells (Fig 6A) ([1]; study participant 2147b): 53.49 % of activated DMSO | Total number of live cells (Fig 6A) ([1]; study participant 2161): 58.44 % of activated DMSO | Total number of live cells (Fig 6A) ([1]; study participant 2461): 29.57 % of activated DMSO | Total number of live cells (Fig 6A) ([1]; study participant 2747): 105.45 % of activated DMSO | Total number of live cells (Fig 6A) ([1]; study participant 2750): 17.9 % of activated DMSO | Multiply spliced HIV transcripts without activation, median relative to DMSO ([2]; 24 hours, at least 3 PWH): 33% | HIV splicing (TatRev/PolyA) without activation ([2]; 24 hours, not statistically significant): severely reduce | LLTR HIV transcripts (DMSO = 100) ([2]; participant 156): 85.34 | Pol HIV transcripts (DMSO = 100) ([2]; participant 156): 133.38 | PolyA HIV transcripts (DMSO = 100) ([2]; participant 156): 150.05 | Tat-Rev HIV transcripts (DMSO = 100) ([2]; participant 156): 66.69 | PolyA/LLTR ratio (DMSO = 1) ([2]; participant 156): 1.758 | TatRev/PolyA ratio (DMSO = 1) ([2]; participant 156): 0.4444 | LLTR HIV transcripts (DMSO = 100) ([2]; participant 163): 92.55 | Pol HIV transcripts (DMSO = 100) ([2]; participant 163): 107.42 | PolyA HIV transcripts (DMSO = 100) ([2]; participant 163): 106.43 | Tat-Rev HIV transcripts (DMSO = 100) ([2]; participant 163): 0 | PolyA/LLTR ratio (DMSO = 1) ([2]; participant 163): 1.15 | TatRev/PolyA ratio (DMSO = 1) ([2]; participant 163): 0 | LLTR HIV transcripts (DMSO = 100) ([2]; participant 1379): 18.62 | Pol HIV transcripts (DMSO = 100) ([2]; participant 1379): 16.13 | PolyA HIV transcripts (DMSO = 100) ([2]; participant 1379): 25.8 | TAR HIV transcripts (DMSO = 100) ([2]; participant 1379): 228.89 | LLTR/TAR ratio (DMSO = 1) ([2]; participant 1379): 0.08133 | PolyA/LLTR ratio (DMSO = 1) ([2]; participant 1379): 1.3861 | LLTR HIV transcripts (DMSO = 100) ([2]; participant 2027): 81.44 | Pol HIV transcripts (DMSO = 100) ([2]; participant 2027): 43.71 | PolyA HIV transcripts (DMSO = 100) ([2]; participant 2027): 90.63 | TAR HIV transcripts (DMSO = 100) ([2]; participant 2027): 125.58 | LLTR/TAR ratio (DMSO = 1) ([2]; participant 2027): 0.6485 | PolyA/LLTR ratio (DMSO = 1) ([2]; participant 2027): 1.113

N#CC[C@H](C1CCCC1)n1cc(-c2ncnc3[nH]ccc23)cn1 [ruxolitinib]
Total live cell numbers (proliferation) compared with activated DMSO (in words) [1]: significantly lower | HIV transcription levels in the absence of T cell activation (in words) ([2]; 24 hours, at least 3 PWH): little effect | LLTR HIV transcripts (DMSO = 100) ([2]; participant 156): 91.78 | Pol HIV transcripts (DMSO = 100) ([2]; participant 156): 118.18 | PolyA HIV transcripts (DMSO = 100) ([2]; participant 156): 108.3 | Tat-Rev HIV transcripts (DMSO = 100) ([2]; participant 156): 167.91 | LLTR HIV transcripts (DMSO = 100) ([2]; participant 163): 148.94 | Pol HIV transcripts (DMSO = 100) ([2]; participant 163): 91.9 | PolyA HIV transcripts (DMSO = 100) ([2]; participant 163): 183.43 | Tat-Rev HIV transcripts (DMSO = 100) ([2]; participant 163): 0 | LLTR HIV transcripts (DMSO = 100) ([2]; participant 1379): 49.44 | Pol HIV transcripts (DMSO = 100) ([2]; participant 1379): 31.32 | PolyA HIV transcripts (DMSO = 100) ([2]; participant 1379): 9.4 | TAR HIV transcripts (DMSO = 100) ([2]; participant 1379): 170 | LLTR HIV transcripts (DMSO = 100) ([2]; participant 2027): 57.36 | Pol HIV transcripts (DMSO = 100) ([2]; participant 2027): 74.54 | PolyA HIV transcripts (DMSO = 100) ([2]; participant 2027): 109.96 | TAR HIV transcripts (DMSO = 100) ([2]; participant 2027): 90.7

CO[C@H]([C@@H](C)[C@H]1O[C@]1(C)C[C@H](C)/C=C/C=C(\C)[C@H]1O[C@@H](CC(=O)O)CC[C@@H]1C)[C@@H](C)O [herboxidiene]
Total live cell numbers (proliferation) compared with activated DMSO (in words) [1]: did not change proliferation rates | Fig 6B: total live cells relative to DMSO+CD3/28 ([1]; participant 150b): 68 | Fig 6B: total live cells relative to DMSO+CD3/28 ([1]; participant 1379): 22.5 | Fig 6B: total live cells relative to DMSO+CD3/28 ([1]; participant 2027): 98.18 | Fig 6B: total live cells relative to DMSO+CD3/28 ([1]; participant 2147a): 103.96 | Fig 6B: total live cells relative to DMSO+CD3/28 ([1]; participant 2147b): 121.98 | Fig 6B: total live cells relative to DMSO+CD3/28 ([1]; participant 2161): 132.2 | Fig 6B: total live cells relative to DMSO+CD3/28 ([1]; participant 2256): 89.47 | Fig 6B: total live cells relative to DMSO+CD3/28 ([1]; participant 2461): 80.23 | Fig 6B: total live cells relative to DMSO+CD3/28 ([1]; participant 5557): 117.65 | Total number of live cells (Fig 6A) ([1]; study participant 1379): 82.06 % of activated DMSO | Total number of live cells (Fig 6A) ([1]; study participant 2027): 34.68 % of activated DMSO | Total number of live cells (Fig 6A) ([1]; study participant 2147a): 115.89 % of activated DMSO | Total number of live cells (Fig 6A) ([1]; study participant 2147b): 188.02 % of activated DMSO | Total number of live cells (Fig 6A) ([1]; study participant 2161): 72.75 % of activated DMSO | Total number of live cells (Fig 6A) ([1]; study participant 2256): 87.5 % of activated DMSO | Total number of live cells (Fig 6A) ([1]; study participant 2461): 32.33 % of activated DMSO | Total number of live cells (Fig 6A) ([1]; study participant 5557): 99.29 % of activated DMSO
